According to the supplement of paper PMC4862054:

Tests used:
Details in all cases: incubation time: 72 h
[1] = tested on: MDA-MB-231; assay: normalised response (% of control), CellTox Green; higher = less cell death (100 = DMSO, 0 = benzethonium chloride kill control)
In short: (§1)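 Breast cancer cell lines, seeded at 20 µl suspension per well, were incubated for 72 h in 384-well plates containing compound at 5 concentrations. These concentrations rose in 10-fold steps over a 10,000-fold range set for each compound. CellTox Green fluorescence (485/520 nm) was read, then CellTiter-Glo luminescence after 10 min at room temperature, and each plate was normalised to 0.1 % DMSO (100) and a positive kill control (0). Values are normalised signals, each at one concentration.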

[2] = tested on: CAL-120; assay: as above
In short: as §1

[3] = tested on: MFM-223; assay: as above
In short: as §1

[4] = tested on: HCC1937; assay: as above
In short: as §1

[5] = tested on: DU-4475; assay: as above
In short: as §1

[6] = tested on: MCF-10A; assay: as above
In short: as §1

[7] = tested on: BT-474; assay: as above
In short: as §1

[8] = tested on: CAL-51; assay: as above
In short: as §1

[9] = tested on: HCC1599; assay: as above
In short: as §1

[10] = tested on: CAL-85-1; assay: as above
In short: as §1

[11] = tested on: MDA-MB-436; assay: as above
In short: as §1

[12] = tested on: MDA-MB-468; assay: as above
In short: as §1

[13] = tested on: HCC1143; assay: as above
In short: as §1

[14] = tested on: MDA-MB-453; assay: as above
In short: as §1

[15] = tested on: BT-549; assay: as above
In short: as §1

[16] = tested on: MDA-MB-231; assay: normalised response (% of control), CellTiter-Glo; higher = more viable cells (100 = DMSO, 0 = benzethonium chloride kill control)
Procedure: (§2)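 DSRT, 72 h incubation, CellTox Green / CellTiter-Glo readout. Signal is normalised to DMSO and benzethonium chloride controls. Value is the normalised response at dose 3.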

[17] = tested on: HDQ-P1; assay: as above
Procedure: as §2

[18] = tested on: CAL-120; assay: as above
Procedure: as §2

[19] = tested on: MFM-223; assay: as above
Procedure: as §2

[20] = tested on: HCC1937; assay: as above
Procedure: as §2

[21] = tested on: DU-4475; assay: as above
Procedure: as §2

[22] = tested on: MCF-10A; assay: as above
Procedure: as §2

[23] = tested on: BT-474; assay: as above
Procedure: as §2

[24] = tested on: CAL-148; assay: as above
Procedure: as §2

[25] = tested on: CAL-51; assay: as above
Procedure: as §2

[26] = tested on: HCC1599; assay: as above
Procedure: as §2

[27] = tested on: SK-BR-3; assay: as above
Procedure: as §2

[28] = tested on: CAL-85-1; assay: as above
Procedure: as §2

[29] = tested on: MDA-MB-436; assay: as above
Procedure: as §2

[30] = tested on: MDA-MB-468; assay: as above
Procedure: as §2

[31] = tested on: Hs578T; assay: as above
Procedure: as §2

[32] = tested on: HCC1143; assay: as above
Procedure: as §2

[33] = tested on: MDA-MB-453; assay: as above
Procedure: as §2

[34] = tested on: BT-549; assay: as above
Procedure: as §2

[35] = tested on: HDQ-P1; assay: normalised response (% of control), CellTox Green; higher = less cell death (100 = DMSO, 0 = benzethonium chloride kill control)
In short: as §1

[36] = tested on: CAL-148; assay: as above
In short: as §1

[37] = tested on: Hs578T; assay: as above
In short: as §1

[38] = tested on: MDA-MB-231; assay: normalised response (% of control), CellTiter-Glo; higher = more viable cells (100 = DMSO, 0 = benzethonium chloride kill control); remark: listed apart in the source
Procedure: (§3)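 DSRT, 72 h incubation, CellTox Green / CellTiter-Glo readout. Signal is normalised to DMSO and benzethonium chloride controls. Value is the normalised response at the highest dose.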

[39] = tested on: HDQ-P1; assay: as above; remark: listed apart in the source
Procedure: as §3

[40] = tested on: CAL-120; assay: as above; remark: listed apart in the source
Procedure: as §3

[41] = tested on: MFM-223; assay: as above; remark: listed apart in the source
Procedure: as §3

[42] = tested on: HCC1937; assay: as above; remark: listed apart in the source
Procedure: as §3

[43] = tested on: DU-4475; assay: as above; remark: listed apart in the source
Procedure: as §3

[44] = tested on: MCF-10A; assay: as above; remark: listed apart in the source
Procedure: as §3

[45] = tested on: BT-474; assay: as above; remark: listed apart in the source
Procedure: as §3

[46] = tested on: CAL-148; assay: as above; remark: listed apart in the source
Procedure: as §3

[47] = tested on: CAL-51; assay: as above; remark: listed apart in the source
Procedure: as §3

[48] = tested on: HCC1599; assay: as above; remark: listed apart in the source
Procedure: as §3

[49] = tested on: SK-BR-3; assay: as above; remark: listed apart in the source
Procedure: as §3

[50] = tested on: CAL-85-1; assay: as above; remark: listed apart in the source
Procedure: as §3

[51] = tested on: MDA-MB-436; assay: as above; remark: listed apart in the source
Procedure: as §3

[52] = tested on: MDA-MB-468; assay: as above; remark: listed apart in the source
Procedure: as §3

[53] = tested on: Hs578T; assay: as above; remark: listed apart in the source
Procedure: as §3

[54] = tested on: HCC1143; assay: as above; remark: listed apart in the source
Procedure: as §3

[55] = tested on: MDA-MB-453; assay: as above; remark: listed apart in the source
Procedure: as §3

[56] = tested on: BT-549; assay: as above; remark: listed apart in the source
Procedure: as §3

How did the normalised response [1] turn out when O=C1c2c(O)ccc(O)c2C(=O)c2c(NCCNCCO)ccc(NCCNCCO)c21 [Mitoxantrone] (10 nM) was run?
Its normalised response is 104%.

And the normalised response [2]?
The normalised response was 101%.

What about the normalised response [3] of the same molecule?
Its normalised response is 97.3%.

And the normalised response [4]?
The normalised response was 91.8%.

What about the normalised response [5] of the same molecule?
The normalised response was 99.9%.

And the normalised response [6]?
The normalised response was 107%.

What about the normalised response [7] of the same molecule?
Its normalised response is 101%.

And the normalised response [8]?
Its normalised response is 104%.

What about the normalised response [9] of the same molecule?
Its normalised response is 96.5%.

What about the normalised response [10] of the same molecule?
Its normalised response is 96.2%.

What about the normalised response [11] of the same molecule?
The normalised response was 93.1%.

What about the normalised response [12] of the same molecule?
The normalised response was 129%.

What about the normalised response [13] of the same molecule?
The normalised response was 111%.

What about the normalised response [14] of the same molecule?
Its normalised response is 107%.

And the normalised response [15]?
Its normalised response is 94.3%.

What about the normalised response [16] of the same molecule?
Its normalised response is 99.8%.

What about the normalised response [17] of the same molecule?
Its normalised response is 106%.

What about the normalised response [18] of the same molecule?
The normalised response was 104%.

And the normalised response [19]?
Its normalised response is 94%.

What about the normalised response [20] of the same molecule?
Its normalised response is 101%.

And the normalised response [21]?
The normalised response was 95.8%.

And the normalised response [22]?
Its normalised response is 96.2%.

What about the normalised response [23] of the same molecule?
The normalised response was 96.1%.

And the normalised response [24]?
Its normalised response is 98.6%.

And the normalised response [25]?
The normalised response was 93.5%.

And the normalised response [26]?
The normalised response was 97.2%.

What about the normalised response [27] of the same molecule?
The normalised response was 89.1%.

What about the normalised response [28] of the same molecule?
Its normalised response is 97.8%.

And the normalised response [29]?
The normalised response was 92.7%.

And the normalised response [30]?
The normalised response was 95.6%.

What about the normalised response [31] of the same molecule?
The normalised response was 102%.

What about the normalised response [32] of the same molecule?
Its normalised response is 104%.

And the normalised response [33]?
Its normalised response is 99.3%.

What about the normalised response [34] of the same molecule?
Its normalised response is 96.7%.

Which results are given for Cc1c(Cn2c(C)nc3c(C(=O)O)cc(N4CCOCC4)cc32)cccc1C(F)(F)F (10000 nM)?
normalised response [1]: 110%; normalised response [35]: 112%; normalised response [2]: 106%; normalised response [3]: 82.5%; normalised response [4]: 114%; normalised response [5]: 102%; normalised response [6]: 108%; normalised response [7]: 100%; normalised response [36]: 77.8%; normalised response [8]: 90.7%; normalised response [9]: 108%; normalised response [10]: 78.3%; normalised response [11]: 96.6%; normalised response [12]: 174%; normalised response [37]: 120%; normalised response [13]: 115%; normalised response [14]: 94.8%; normalised response [15]: 101%; normalised response [38]: 96.1%; normalised response [39]: 100%; normalised response [40]: 100%; normalised response [41]: 102%; normalised response [42]: 92.1%; normalised response [43]: 97%; normalised response [44]: 111%; normalised response [45]: 94.5%; normalised response [46]: 114%; normalised response [47]: 64.9%; normalised response [48]: 97.5%; normalised response [49]: 98.3%; normalised response [50]: 97.3%; normalised response [51]: 86.2%; normalised response [52]: 69.4%; normalised response [53]: 97.6%; normalised response [54]: 106%; normalised response [55]: 94.1%; normalised response [56]: 85.4%

What does the source list for CC(C)N(CCCNC(=O)Nc1ccc(C(C)(C)C)cc1)C[C@H]1O[C@@H](n2cc(Br)c3c(N)ncnc32)[C@H](O)[C@@H]1O [SGC0946] (100 nM)?
normalised response [1]: 73.8%; normalised response [2]: 95.6%; normalised response [3]: 97.4%; normalised response [5]: 98.8%; normalised response [6]: 99%; normalised response [7]: 98.2%; normalised response [36]: 100%; normalised response [8]: 95.6%; normalised response [9]: 96.4%; normalised response [10]: 103%; normalised response [11]: 95.2%; normalised response [12]: 108%; normalised response [13]: 88.1%; normalised response [14]: 99.1%; normalised response [15]: 101%; normalised response [16]: 96%; normalised response [17]: 93%; normalised response [18]: 101%; normalised response [19]: 95.2%; normalised response [20]: 94.4%; normalised response [21]: 98%; normalised response [22]: 96%; normalised response [23]: 96%; normalised response [24]: 86.6%; normalised response [25]: 91.1%; normalised response [26]: 93.7%; normalised response [27]: 90%; normalised response [28]: 102%; normalised response [29]: 99.4%; normalised response [30]: 93.8%; normalised response [31]: 88.5%; normalised response [32]: 101%; normalised response [33]: 91%; normalised response [34]: 91.3%
